The structures appear in SMILES notation.

One assay deals with C57BL/6J mice. The experiment in a line: In vivo antihyperglycaemic/antidiabetic activity (OGTT), acute single dose 120-min time-course. As to conditions: Mus musculus, 2 h; male C57BL/6J mice, acute single dose 0,3 mg/kg po, 120-min time-course, n = 6, Mean ± SEM; read-out: In vivo OGTT C57; % Glucose change. The method, then:
Acute single dose 120-min time-course experiments were carried out in male C57BL/6J mice, age 8-12 weeks, bred in-house. Animals were housed in groups of 6 animals per cage, for a week, in order to habituate them to vivarium conditions (25±4° C., 60-65% relative humidity, 12: 12 h light: dark cycle, with lights on at 7.30 am). All the animal experiments were carried out according to the internationally valid guidelines following approval by the ‘Zydus Research Center animal ethical committee’.
The in-vivo glucose lowering properties of the test compounds were evaluated in C57BL/6J (mild hyperglycemic) animal models as described below. Two days prior to the study, the animals were randomized and divided into groups (n=6), based upon their fed glucose levels. On the day of experiment, food was withdrawn from all the cages, water was given ad-libitum and were kept for overnight fasting. Vehicle (normal saline)/test compounds were administered orally, on a body weight basis. Soon after the 0 min. blood collection from each animal, the subsequent blood collections were done at 30, 60 and 120 or upto 240 min., via retro-orbital route, under light ether anesthesia (Diabetes Obesity Metabolism, 7, 307, 2005; Diabetes, 52, 751, 2003).
Blood samples were centrifuged and the separated serum was immediately subjected for the glucose estimation. Serum for insulin estimation was stored at −70° C. until used for the insulin estimation. The glucose estimation was carried out with DPEC-GOD/POD method (Ranbaxy Fine Chemicals Limited, Diagnostic division, India), using Spectramax-190, in 96-microwell plate reader (Molecular devices Corporation, Sunnyvale, Calif.). […] The AUC and BCAUC obtained from graphs were analyzed for one way ANOVA, followed by Dunnett's post test, using Graph Pad prism software.

The next assay concerns the target T1, DPP-IV enzyme (Homo sapiens, UniProt P27487).
T1 construct: soluble human proteins (DPP-IV enzyme) produced in a baculovirus expression system; made in house; host or cells: baculovirus expression system (Life Technologies)
The experiment in a line: In vitro DPP-IV inhibitory activity using enzymatic (fluorescence-based) assay. The class given is biochemical. As to conditions: soluble human DPP-IV, H-Gly-Pro-AMC 200 μM, pH 7.8, 25° C., 30 min; read-out: % In-vitro DPPIV Inhibition IC50. The method, then:
In Vitro DPP-IV Inhibitory Activity Using Enzymatic Assay:
In vitro enzyme (DPP-IV) inhibitory activity was determined using fluorescence-based assay (Anal. Biochem., 200, 352, 1992). The Gly-Pro-AMC was used as a substrate (which is cleaved by the enzymes to release the fluorescent AMC) and soluble human proteins (DPP-IV enzyme) produced in a baculovirus expression system (Life Technologies) was used as the enzyme source. The H-Gly-Pro-AMC (200 μM) was incubated with DPP-IV enzyme in the presence of various concentrations (30 & 100 nM) of test compounds. Reaction was carried out at pH 7.8 (HEPES buffer 25 mM containing 1.0% BSA, 140 mM NaCl, 16 mM MgCl2, 2.8% DMSO) in a total volume of 100 μl at 25° C. for 30 min., in the dark. Reaction was terminated with acetic acid (25 μl of 25% solution). Activity (fluorescence) was measured using Spectra Max fluorometer (Molecular Devices, Sunnyvale Calif.) by exciting at 380 nm and emission at 460 nm.

T1 sequence (P27487 39-766 limits assumed): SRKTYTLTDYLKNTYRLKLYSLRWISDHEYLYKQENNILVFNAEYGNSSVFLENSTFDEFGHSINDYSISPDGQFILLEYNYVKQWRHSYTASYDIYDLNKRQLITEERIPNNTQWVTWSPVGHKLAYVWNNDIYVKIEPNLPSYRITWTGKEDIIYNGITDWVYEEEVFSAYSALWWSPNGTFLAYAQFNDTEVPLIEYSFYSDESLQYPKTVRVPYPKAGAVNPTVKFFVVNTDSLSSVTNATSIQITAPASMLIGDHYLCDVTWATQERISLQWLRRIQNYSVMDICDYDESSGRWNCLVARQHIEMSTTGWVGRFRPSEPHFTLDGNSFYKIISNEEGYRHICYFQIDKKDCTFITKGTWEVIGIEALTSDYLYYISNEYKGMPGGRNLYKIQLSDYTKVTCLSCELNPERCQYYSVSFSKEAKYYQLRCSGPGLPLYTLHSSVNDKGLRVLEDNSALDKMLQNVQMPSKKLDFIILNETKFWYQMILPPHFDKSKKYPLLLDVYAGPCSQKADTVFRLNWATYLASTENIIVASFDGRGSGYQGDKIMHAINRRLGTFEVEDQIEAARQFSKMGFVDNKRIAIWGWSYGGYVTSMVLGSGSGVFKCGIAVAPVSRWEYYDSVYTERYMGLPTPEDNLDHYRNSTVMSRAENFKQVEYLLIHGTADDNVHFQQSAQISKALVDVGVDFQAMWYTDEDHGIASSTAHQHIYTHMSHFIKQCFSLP

By IC50 is commonly meant the concentration that inhibits the measured activity by half. As to `CS(=O)(=O)N1CCC2(CCN([C@H]3CO[C@H](c4cc(F)ccc4F)[C@@H](N)C3)C2)C1` (stereo partly drawn) [Compound 2, (2R,3S,5R)-2-(2,5-difluorophenyl)-5-(7-(methylsulfonyl)-2,7-diazaspiro[4.4]-nonan-2-yl)tetrahydro-2H-pyran-3-amine], the change in vivo at 0.3 mg/kg with C57BL/6J mice was -25.7 ± 1.8%. Also, the IC50 on DPP-IV enzyme is < 10 nM.
Regarding `N[C@H]1C[C@@H](N2CC3CNCC3C2)CO[C@@H]1c1cc(F)ccc1F` (stereo partly drawn) [Compound 4, (2R,3S,5R)-2-(2,5-difluorophenyl)-5-(hexahydropyrrolo[3,4-c]pyrrol-2(1H)-yl)tetrahydro-2H-pyran-3-amine], the change in vivo at 0.3 mg/kg in the assay on C57BL/6J mice is -16.5 ± 3.8%. Moreover, the 50% inhibitory concentration (IC50) at DPP-IV enzyme was < 100 nM.
On the same counts, the results for `N[C@H]1C[C@@H](N2CC3CN(S(=O)(=O)C(F)(F)F)CC3C2)CO[C@@H]1c1cc(F)ccc1F` (stereo partly drawn) [Compound 5, (2R,3S,5R)-2-(2,5-difluorophenyl)-5-(5-((trifluoromethyl)sulfonyl)hexahydropyrrolo[3,4-c]pyrrol-2(1H)-yl)tetrahydro-2H-pyran-3-amine] are -7.6 ± 1.3% and < 100 nM.
With `N[C@H]1C[C@@H](N2CC3CN(S(=O)(=O)c4ccccc4)CC3C2)CO[C@@H]1c1cc(F)ccc1F` (stereo partly drawn) [Compound 6, (2R,3S,5R)-2-(2,5-difluorophenyl)-5-(5-(phenylsulfonyl)hexahydropyrrolo[3,4-c]pyrrol-2(1H)-yl)tetrahydro-2H-pyran-3-amine], in the assay with C57BL/6J mice, the change in vivo at 0.3 mg/kg was -7.3 ± 1.6%. Also, the IC50 at DPP-IV enzyme was < 100 nM.
Consider `CN(C)S(=O)(=O)N1CC2CN([C@H]3CO[C@H](c4cc(F)ccc4F)[C@@H](N)C3)CC2C1` (stereo partly drawn) [Compound 7, 5-((3R,5S,6R)-5-amino-6-(2,5-difluorophenyl)tetrahydro-2H-pyran-3-yl)-N,N-dimethylhexahydropyrrolo[3,4-c]pyrrole-2(1H)-sulfonamide], for which the change in vivo at 0.3 mg/kg with C57BL/6J mice was -7.9 ± 1.2%. Also, at DPP-IV enzyme, the IC50 is < 10 nM.
`CN(C)S(=O)(=O)N1CC2=C(CN([C@H]3CO[C@H](c4cc(F)ccc4F)[C@@H](N)C3)C2)C1` [Compound 9, 5-((3R,5S,6R)-5-amino-6-(2,5-difluorophenyl)tetrahydro-2H-pyran-3-yl)-N,N-dimethyl-3,4,5,6-tetrahydropyrrolo[3,4-c]pyrrole-2(1H)-sulfonamide]: in the assay on C57BL/6J mice, the change in vivo at 0.3 mg/kg was -34.7 ± 4.4%. Moreover, the IC50 at DPP-IV enzyme is < 10 nM.
On the same counts, the results for `N[C@H]1C[C@@H](N2CC3C(=O)N(C4CC4)C(=O)C3C2)CO[C@@H]1c1cc(F)ccc1F` (stereo partly drawn) [Compound 10, 5-((3R,5S,6R)-5-amino-6-(2,5-difluorophenyl)tetrahydro-2H-pyran-3-yl)-2-cyclopropyltetrahydropyrrolo[3,4-c]pyrrole-1,3(2H,3aH)-dione] are -12.5 ± 1.3% and < 100 nM.
As for `N[C@H]1C[C@@H](N2CC3C(=O)N(Cc4ccccc4)C(=O)C3C2)CO[C@@H]1c1cc(F)ccc1F` (stereo partly drawn) [Compound 11, 5-((3R,5S,6R)-5-amino-6-(2,5-difluorophenyl)tetrahydro-2H-pyran-3-yl)-2-benzyltetrahydropyrrolo[3,4-c]pyrrole-1,3(2H,3aH)-dione], the change in vivo at 0.3 mg/kg in the assay on C57BL/6J mice was -25.6 ± 3.2%. Besides, the IC50 at DPP-IV enzyme is < 100 nM.
For `CS(=O)(=O)N1CCC2CN([C@H]3CO[C@H](c4cc(F)ccc4F)[C@@H](N)C3)CC2C1` (stereo partly drawn) [Compound 12, (2R,3S,5R)-2-(2,5-difluorophenyl)-5-(5-(methylsulfonyl)hexahydro-1H-pyrrolo[3,4-c]pyridin-2(3H)-yl)tetrahydro-2H-pyran-3-amine], the change in vivo at 0.3 mg/kg in the assay on C57BL/6J mice is -9.8 ± 1.5%. Further, the IC50 on DPP-IV enzyme is < 100 nM.
`CS(=O)(=O)N1CC2CCN([C@H]3CO[C@H](c4cc(F)ccc4F)[C@@H](N)C3)CC2C1` (stereo partly drawn) [Compound 13, (2R,3S,5R)-2-(2,5-difluorophenyl)-5-(2-(methylsulfonyl)hexahydro-1H-pyrrolo[3,4-c]pyridin-5(6H)-yl)tetrahydro-2H-pyran-3-amine]: the change in vivo at 0.3 mg/kg with C57BL/6J mice was -26.4 ± 1.6%. For the same molecule, the IC50 on DPP-IV enzyme is < 10 nM.
With `CS(=O)(=O)N1CCC2(CCN([C@H]3CO[C@H](c4cc(F)ccc4F)[C@@H](N)C3)C2)CC1` [Compound 14, (2R,3S,5R)-2-(2,5-difluorophenyl)-5-(8-(methylsulfonyl)-2,8-diazaspiro[4.5]decan-2-yl)tetrahydro-2H-pyran-3-amine], the change in vivo at 0.3 mg/kg with C57BL/6J mice was -14.2 ± 3.4%. Further, the IC50 on DPP-IV enzyme is < 100 nM.
In the case of `CS(=O)(=O)N1CCC2CN([C@H]3CO[C@H](c4cc(F)ccc4F)[C@@H](N)C3)CC21` (stereo partly drawn) [Compound 15, (2R,3S,5R)-2-(2,5-difluorophenyl)-5-(1-(methylsulfonyl)hexahydropyrrolo[3,4-b]pyrrol-5(1H)-yl)tetrahydro-2H-pyran-3-amine], the change in vivo at 0.3 mg/kg in the assay on C57BL/6J mice is -42 ± 1.8%. Also, the IC50 at DPP-IV enzyme was < 100 nM.
On the same counts, the results for `CS(=O)(=O)N1CC2CCN([C@H]3CO[C@H](c4cc(F)ccc4F)[C@@H](N)C3)C2C1` (stereo partly drawn) [Compound 16, (2R,3S,5R)-2-(2,5-difluorophenyl)-5-(5-(methylsulfonyl)hexahydropyrrolo[3,4-b]pyrrol-1(2H)-yl)tetrahydro-2H-pyran-3-amine] are -29.4 ± 6.8% and < 100 nM.
On to `N[C@H]1C[C@@H](N2CC3CN(Cc4ccccc4)CC3C2)CO[C@@H]1c1cc(F)ccc1F` (stereo partly drawn) [Compound 18, (2R,3S,5R)-5-(5-benzylhexahydropyrrolo[3,4-c]pyrrol-2(1H)-yl)-2-(2,5-difluorophenyl)tetrahydro-2H-pyran-3-amine], for which the change in vivo at 0.3 mg/kg in the assay with C57BL/6J mice is -12.6 ± 4%. At DPP-IV enzyme, the IC50 was < 100 nM.
With `CS(=O)(=O)N1C[C@H]2CN([C@H]3CO[C@H](c4cc(F)ccc4F)[C@@H](N)C3)C[C@H]21` [Compound 19, (2R,3S,5R)-2-(2,5-difluorophenyl)-5-((1R,5S)-6-(methylsulfonyl)-3,6-diazabicyclo[3.2.0]heptan-3-yl)tetrahydro-2H-pyran-3-amine], in the assay with C57BL/6J mice, the change in vivo at 0.3 mg/kg was -20.6 ± 3%. Also, the IC50 at DPP-IV enzyme was < 100 nM.
For the molecule `CS(=O)(=O)N1C[C@H]2CN([C@H]3CO[C@H](c4cc(F)ccc4F)[C@@H](N)C3)[C@H]2C1` [Compound 20, (2R,3S,5R)-2-(2,5-difluorophenyl)-5-((1R,5R)-3-(methylsulfonyl)-3,6-diazabicyclo[3.2.0]heptan-6-yl)tetrahydro-2H-pyran-3-amine], the change in vivo at 0.3 mg/kg in the assay on C57BL/6J mice was -8.4 ± 1.7%. For the same molecule, the IC50 at DPP-IV enzyme is < 100 nM.
For `CS(=O)(=O)NC1CC2CN([C@H]3CO[C@H](c4cc(F)ccc4F)[C@@H](N)C3)CC2C1` (stereo partly drawn) [Compound 21, N-(2-((3R,5S,6R)-5-amino-6-(2,5-difluorophenyl)tetrahydro-2H-pyran-3-yl)octahydrocyclopenta[c]pyrrol-5-yl)methanesulfonamide], in that order: -15 ± 4% and < 100 nM.
Turning to `N[C@H]1C[C@@H](N2CC3=C(CN(C(=O)C4CC4)C3)C2)CO[C@@H]1c1cc(F)ccc1F` [Compound 22, (2R,3S,5R)-5-(5-(cyclopropanecarbonyl)-5,6-dihydropyrrolo[3,4-c]pyrrol-2(1H,3H,4H)-yl)-2-(2,5-difluorophenyl)tetrahydro-2H-pyran-3-amine], the change in vivo at 0.3 mg/kg in the assay on C57BL/6J mice was -25.1 ± 2%. In addition, the IC50 at DPP-IV enzyme was < 30 nM.
As to `N[C@H]1C[C@@H](N2CC3=C(CN(C(=O)c4ccccc4)C3)C2)CO[C@@H]1c1cc(F)ccc1F` [Compound 23, (5-((3R,5S,6R)-5-amino-6-(2,5-difluorophenyl)tetrahydro-2H-pyran-3-yl)-5,6-dihydropyrrolo[3,4-c]pyrrol-2(1H,3H,4H)-yl)(phenyl)methanone], the change in vivo at 0.3 mg/kg with C57BL/6J mice is -22 ± 1.2%. On DPP-IV enzyme, the IC50 is < 30 nM.
Take `Cc1ccc(S(=O)(=O)N=S(C)(=O)N2CC3=C(CN([C@H]4CO[C@H](c5cc(F)ccc5F)[C@@H](N)C4)C3)C2)cc1` (stereo partly drawn) [Compound 49, (2R,3S,5R)-2-(2,5-difluorophenyl)-5-(5-(N-(4-methylbenzenesulfonyl)-S-methylsulfonimidoyl)-5,6-dihydropyrrolo[3,4-c]pyrrol-2(1H,3H,4H)-yl)tetrahydro-2H-pyran-3-amine]: the IC50 on DPP-IV enzyme is < 10 nM.

(Values after US20150246025A1, “2-PHENYL-5-HETEROCYCLYL-TETRAHYDRO-2H-PYRAN-3-AMINE COMPOUNDS FOR USE IN THE TREATMENT OF DIABETES AND ITS ASSOCIATED DISORDERS” (CADILA HEALTHCARE LIMITED, priority 2012, published 2015).)
